Results as given in paper PMC5224880, “Discovery and Molecular Basis of a Diverse Set of Polycomb Repressive Complex 2 Inhibitors Recognition by EED” (PLoS ONE, 2017).

How the values were obtained:
Type in all cases: biochemical
SETD2 = SETD2 (Homo sapiens, UniProt Q9BYW2); assay: HMT panel selectivity: SETD2
Procedure: (§1) Note: for EZH2, EZH2/EED/SUZ12/RBAP48/AEBP2 was used in the assay; for EZH1, EZH1/EED/SUZ12/RBAP48/AEBP2 was used in the assay; for MLL, MLL/WDR5/RBBP5/ASH2L/ was use in the assay. a, H3K27me0 peptide was used as substrate for both EZH2 and EZH1 activity; b, H3K27me1 peptide was used as substrate for both EZH2 and EZH1 activity. All HMT reactions were performed as described previously. ref: Proc Natl Acad Sci U S A. 2012 Dec 26;109(52):21360-5.

SMYD3 = target: T1, SMYD3 (Homo sapiens, UniProt Q9H7B4); assay: HMT panel selectivity: SMYD3
T1 sequence (Q9H7B4 1-428): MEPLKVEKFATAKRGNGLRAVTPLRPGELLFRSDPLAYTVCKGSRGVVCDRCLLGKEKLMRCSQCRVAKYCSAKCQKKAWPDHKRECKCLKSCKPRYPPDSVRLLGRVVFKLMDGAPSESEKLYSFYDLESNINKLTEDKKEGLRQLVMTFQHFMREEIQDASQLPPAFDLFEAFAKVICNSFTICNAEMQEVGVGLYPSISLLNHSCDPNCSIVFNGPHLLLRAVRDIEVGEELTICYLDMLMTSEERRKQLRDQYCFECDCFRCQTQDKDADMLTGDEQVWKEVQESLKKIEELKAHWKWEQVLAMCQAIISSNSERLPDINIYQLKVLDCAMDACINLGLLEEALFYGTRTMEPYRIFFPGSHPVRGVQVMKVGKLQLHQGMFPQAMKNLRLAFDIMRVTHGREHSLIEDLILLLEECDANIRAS
Procedure: as §1

Dot1L = Dot1L (Homo sapiens, UniProt Q8TEK3); assay: HMT panel selectivity: Dot1L
Procedure: as §1

PRMT3 = PRMT3 (Homo sapiens, UniProt O60678); assay: HMT panel selectivity: PRMT3
Procedure: as §1

[1] = target: MLL (MLL/WDR5/RBBP5/ASH2L) (Homo sapiens, UniProt Q03164); assay: HMT panel selectivity: MLL
Procedure: as §1

[2] = target: EZH1 (EZH1/EED/SUZ12/RBAP48/AEBP2) (Homo sapiens, UniProt O75530+Q92800); assay: HMT panel selectivity: EZH1
Source text: as §1, with “activity.” for “activity. All HMT reactions were performed as described previously. ref: Proc Natl Acad Sci U S A. 2012 Dec 26;109(52):21360-5.”

SMYD2 = SMYD2 (Homo sapiens, UniProt Q9NRG4); assay: HMT panel selectivity: SMYD2
Procedure: as §1

G9a = target: T2, G9a (Homo sapiens, UniProt Q96KQ7); assay: HMT panel selectivity: G9a
T2 sequence (Q96KQ7 1-1210): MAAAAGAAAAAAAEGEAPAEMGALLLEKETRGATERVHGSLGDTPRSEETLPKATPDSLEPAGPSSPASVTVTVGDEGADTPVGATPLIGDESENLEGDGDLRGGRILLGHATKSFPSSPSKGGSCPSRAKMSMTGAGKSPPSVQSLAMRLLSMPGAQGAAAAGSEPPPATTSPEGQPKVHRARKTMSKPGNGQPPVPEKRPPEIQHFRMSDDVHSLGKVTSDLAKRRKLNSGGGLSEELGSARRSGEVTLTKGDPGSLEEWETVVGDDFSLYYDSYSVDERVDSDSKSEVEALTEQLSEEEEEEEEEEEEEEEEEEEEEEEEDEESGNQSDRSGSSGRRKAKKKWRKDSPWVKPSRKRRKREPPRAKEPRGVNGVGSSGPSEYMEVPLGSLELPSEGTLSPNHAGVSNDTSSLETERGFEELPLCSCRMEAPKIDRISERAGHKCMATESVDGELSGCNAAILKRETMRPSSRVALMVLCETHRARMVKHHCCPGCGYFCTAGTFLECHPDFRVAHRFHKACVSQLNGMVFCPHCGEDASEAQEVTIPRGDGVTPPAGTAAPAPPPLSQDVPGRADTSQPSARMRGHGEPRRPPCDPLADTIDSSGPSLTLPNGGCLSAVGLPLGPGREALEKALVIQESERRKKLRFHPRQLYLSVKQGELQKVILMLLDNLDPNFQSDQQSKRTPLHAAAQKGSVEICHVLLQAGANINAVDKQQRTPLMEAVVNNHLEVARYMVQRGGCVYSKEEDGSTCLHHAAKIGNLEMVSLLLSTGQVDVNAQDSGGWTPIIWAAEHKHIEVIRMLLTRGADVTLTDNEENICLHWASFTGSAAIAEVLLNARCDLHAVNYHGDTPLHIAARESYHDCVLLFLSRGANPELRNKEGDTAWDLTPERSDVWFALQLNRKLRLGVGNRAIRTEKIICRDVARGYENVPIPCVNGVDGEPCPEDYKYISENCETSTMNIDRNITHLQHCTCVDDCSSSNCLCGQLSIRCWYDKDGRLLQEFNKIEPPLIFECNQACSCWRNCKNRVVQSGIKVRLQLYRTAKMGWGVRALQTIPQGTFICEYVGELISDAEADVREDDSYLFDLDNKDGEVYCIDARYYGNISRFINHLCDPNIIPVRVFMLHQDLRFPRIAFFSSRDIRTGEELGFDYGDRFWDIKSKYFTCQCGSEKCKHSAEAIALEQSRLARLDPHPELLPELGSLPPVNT
Procedure: as §1

NSD1 = NSD1 (Homo sapiens, UniProt Q96L73); assay: HMT panel selectivity: NSD1
Procedure: as §1

Sequence of SMYD2 (Q9NRG4 whole entry, species assumed): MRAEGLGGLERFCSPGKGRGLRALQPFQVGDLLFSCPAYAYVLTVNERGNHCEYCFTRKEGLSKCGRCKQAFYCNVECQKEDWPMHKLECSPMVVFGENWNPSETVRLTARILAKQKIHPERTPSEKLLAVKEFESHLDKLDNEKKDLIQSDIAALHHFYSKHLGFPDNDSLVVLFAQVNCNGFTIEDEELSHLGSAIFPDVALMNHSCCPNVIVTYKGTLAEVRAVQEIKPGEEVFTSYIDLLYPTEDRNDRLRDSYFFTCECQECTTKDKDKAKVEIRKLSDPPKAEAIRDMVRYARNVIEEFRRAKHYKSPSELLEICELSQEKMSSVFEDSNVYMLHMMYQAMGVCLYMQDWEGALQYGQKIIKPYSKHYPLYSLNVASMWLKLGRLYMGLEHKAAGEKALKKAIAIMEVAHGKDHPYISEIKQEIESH
Sequence of PRMT3 (O60678 whole entry, species assumed): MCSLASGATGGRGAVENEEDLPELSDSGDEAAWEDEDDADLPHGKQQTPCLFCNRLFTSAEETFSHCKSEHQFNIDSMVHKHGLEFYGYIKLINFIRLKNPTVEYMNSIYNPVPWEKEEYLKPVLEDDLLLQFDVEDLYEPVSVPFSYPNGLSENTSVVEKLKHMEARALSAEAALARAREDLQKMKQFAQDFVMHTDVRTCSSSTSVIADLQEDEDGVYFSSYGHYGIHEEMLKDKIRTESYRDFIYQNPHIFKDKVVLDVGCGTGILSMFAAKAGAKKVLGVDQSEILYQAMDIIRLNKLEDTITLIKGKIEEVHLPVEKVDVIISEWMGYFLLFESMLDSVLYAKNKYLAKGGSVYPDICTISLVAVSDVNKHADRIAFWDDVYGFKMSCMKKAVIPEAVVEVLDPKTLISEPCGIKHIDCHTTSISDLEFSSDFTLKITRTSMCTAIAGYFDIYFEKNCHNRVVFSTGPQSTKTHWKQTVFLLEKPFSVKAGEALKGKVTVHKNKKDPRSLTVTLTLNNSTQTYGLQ
Sequence of EZH1 (EZH1/EED/SUZ12/RBAP48/AEBP2) (Q92800 whole entry): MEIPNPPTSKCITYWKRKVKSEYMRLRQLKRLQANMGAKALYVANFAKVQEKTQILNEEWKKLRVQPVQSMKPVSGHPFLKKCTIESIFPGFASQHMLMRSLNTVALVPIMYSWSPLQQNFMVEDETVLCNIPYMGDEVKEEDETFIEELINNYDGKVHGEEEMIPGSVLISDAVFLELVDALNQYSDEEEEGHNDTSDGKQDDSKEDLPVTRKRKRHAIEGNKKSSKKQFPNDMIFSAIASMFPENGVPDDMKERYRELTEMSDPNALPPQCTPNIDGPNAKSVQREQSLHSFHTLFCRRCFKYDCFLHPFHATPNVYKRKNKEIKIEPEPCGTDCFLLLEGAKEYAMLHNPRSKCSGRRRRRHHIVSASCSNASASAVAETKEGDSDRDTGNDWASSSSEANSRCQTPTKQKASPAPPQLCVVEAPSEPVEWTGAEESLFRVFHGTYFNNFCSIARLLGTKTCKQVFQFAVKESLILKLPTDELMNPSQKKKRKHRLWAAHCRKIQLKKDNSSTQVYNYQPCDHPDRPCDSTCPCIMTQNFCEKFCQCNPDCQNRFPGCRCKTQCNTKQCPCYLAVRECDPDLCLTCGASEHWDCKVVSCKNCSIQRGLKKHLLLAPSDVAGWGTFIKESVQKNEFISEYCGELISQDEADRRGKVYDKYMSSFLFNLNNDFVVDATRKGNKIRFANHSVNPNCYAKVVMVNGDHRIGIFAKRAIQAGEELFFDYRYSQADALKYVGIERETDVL
Sequence of EZH1 (EZH1/EED/SUZ12/RBAP48/AEBP2) (O75530 whole entry): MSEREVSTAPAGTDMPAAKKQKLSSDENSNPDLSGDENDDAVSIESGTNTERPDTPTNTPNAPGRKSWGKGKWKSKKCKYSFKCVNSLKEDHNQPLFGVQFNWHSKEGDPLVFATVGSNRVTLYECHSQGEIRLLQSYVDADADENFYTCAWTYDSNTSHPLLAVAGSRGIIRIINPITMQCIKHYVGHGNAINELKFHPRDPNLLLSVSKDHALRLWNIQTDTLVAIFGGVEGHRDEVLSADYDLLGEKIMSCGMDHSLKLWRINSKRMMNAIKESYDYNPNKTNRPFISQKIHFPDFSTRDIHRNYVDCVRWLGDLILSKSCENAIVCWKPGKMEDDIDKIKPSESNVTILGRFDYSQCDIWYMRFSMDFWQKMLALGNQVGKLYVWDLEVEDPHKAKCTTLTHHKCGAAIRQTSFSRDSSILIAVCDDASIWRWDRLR
Sequence of EZH1 (EZH1/EED/SUZ12/RBAP48/AEBP2) (Q15022 whole entry partner): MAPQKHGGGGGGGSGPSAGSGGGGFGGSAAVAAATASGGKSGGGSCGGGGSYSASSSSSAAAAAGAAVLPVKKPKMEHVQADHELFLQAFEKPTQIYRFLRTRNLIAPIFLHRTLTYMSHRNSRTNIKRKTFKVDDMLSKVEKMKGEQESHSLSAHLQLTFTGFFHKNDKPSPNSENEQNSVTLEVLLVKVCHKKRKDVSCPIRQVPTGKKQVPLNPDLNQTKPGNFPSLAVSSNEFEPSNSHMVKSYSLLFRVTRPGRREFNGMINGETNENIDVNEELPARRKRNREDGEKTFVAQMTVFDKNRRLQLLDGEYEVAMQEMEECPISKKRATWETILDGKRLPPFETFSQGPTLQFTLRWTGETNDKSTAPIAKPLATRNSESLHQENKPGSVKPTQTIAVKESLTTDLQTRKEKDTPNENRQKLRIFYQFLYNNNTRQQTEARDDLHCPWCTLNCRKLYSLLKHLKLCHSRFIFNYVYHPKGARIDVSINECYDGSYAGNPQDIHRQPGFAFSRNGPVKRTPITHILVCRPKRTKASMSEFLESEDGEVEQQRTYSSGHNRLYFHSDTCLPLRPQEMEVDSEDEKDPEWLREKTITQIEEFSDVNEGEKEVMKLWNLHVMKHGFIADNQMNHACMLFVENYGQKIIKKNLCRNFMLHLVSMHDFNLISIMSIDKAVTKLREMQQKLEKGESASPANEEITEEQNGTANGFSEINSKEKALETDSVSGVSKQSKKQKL
Sequence of EZH1 (EZH1/EED/SUZ12/RBAP48/AEBP2) (Q09028 whole entry partner): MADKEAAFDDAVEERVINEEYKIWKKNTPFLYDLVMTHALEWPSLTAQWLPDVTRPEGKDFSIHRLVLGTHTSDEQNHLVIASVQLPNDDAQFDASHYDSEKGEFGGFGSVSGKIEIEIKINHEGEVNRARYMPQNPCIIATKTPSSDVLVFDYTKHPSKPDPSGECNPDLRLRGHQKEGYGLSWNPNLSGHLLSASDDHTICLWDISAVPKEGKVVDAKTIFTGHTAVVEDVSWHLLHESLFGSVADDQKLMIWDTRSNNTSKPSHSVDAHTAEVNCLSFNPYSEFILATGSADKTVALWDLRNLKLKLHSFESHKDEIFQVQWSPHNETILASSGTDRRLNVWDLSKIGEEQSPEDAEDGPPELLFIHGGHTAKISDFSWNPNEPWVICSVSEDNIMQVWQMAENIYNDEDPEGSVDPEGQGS
Sequence of EZH1 (EZH1/EED/SUZ12/RBAP48/AEBP2) (Q6ZN18 whole entry partner): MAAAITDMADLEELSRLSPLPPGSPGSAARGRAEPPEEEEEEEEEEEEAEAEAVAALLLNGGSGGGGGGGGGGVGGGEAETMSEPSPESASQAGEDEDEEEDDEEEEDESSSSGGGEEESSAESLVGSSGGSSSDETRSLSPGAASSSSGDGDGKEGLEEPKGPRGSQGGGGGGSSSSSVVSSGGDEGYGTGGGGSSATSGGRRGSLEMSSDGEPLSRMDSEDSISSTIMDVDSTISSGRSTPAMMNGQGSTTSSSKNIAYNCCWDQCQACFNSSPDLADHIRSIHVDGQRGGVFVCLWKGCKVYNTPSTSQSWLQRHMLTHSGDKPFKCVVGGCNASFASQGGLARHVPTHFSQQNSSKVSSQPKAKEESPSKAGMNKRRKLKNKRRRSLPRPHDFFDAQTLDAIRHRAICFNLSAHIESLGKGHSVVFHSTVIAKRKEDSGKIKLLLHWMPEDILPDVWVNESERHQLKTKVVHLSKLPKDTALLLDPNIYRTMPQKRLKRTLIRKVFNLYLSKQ

Q: `N#Cc1c2c(c3nncn3c1NCc1ccco1)CN(Cc1ccccc1)CC2` [EED162] was tested. Which IC50 (SETD2) did it give?
A: > 100 µM

Q: And the IC50 (SMYD3)?
A: > 100 µM

Q: What about the IC50 (Dot1L) of the same molecule?
A: > 100 µM

Q: And the IC50 (PRMT3)?
A: > 100 µM

Q: What about the IC50 [1] of the same molecule?
A: > 100 µM

Q: And the IC50 [2]?
A: 5.1 µM

Q: What about the IC50 (SMYD2) of the same molecule?
A: > 100 µM

Q: What about the IC50 (G9a) of the same molecule?
A: > 100 µM

Q: And the IC50 (NSD1)?
A: > 100 µM

Q: With `COc1cccc(CC2CC3Cc4c(cccc4OC)CC3N(C)C2)c1` (stereo not shown) [EED210] as the molecule, how does the IC50 (SETD2) read?
A: > 100 µM

Q: And the IC50 (SMYD3)?
A: > 100 µM

Q: What about the IC50 (Dot1L) of the same molecule?
A: > 100 µM

Q: What about the IC50 (PRMT3) of the same molecule?
A: > 100 µM

Q: And the IC50 [1]?
A: > 100 µM

Q: And the IC50 (SMYD2)?
A: > 100 µM

Q: What about the IC50 (G9a) of the same molecule?
A: > 100 µM

Q: What about the IC50 (NSD1) of the same molecule?
A: > 100 µM

Q: Which IC50 (SETD2) does the source give for `COc1cc(-c2cc3n(c(=N)c2C#N)CCc2cc4c(cc2-3)OCO4)ccc1OC(C)C` [EED396] here?
A: > 100 µM

Q: What about the IC50 (SMYD3) of the same molecule?
A: > 100 µM

Q: And the IC50 (Dot1L)?
A: > 100 µM

Q: What about the IC50 (PRMT3) of the same molecule?
A: > 100 µM

Q: What about the IC50 [1] of the same molecule?
A: > 100 µM

Q: What about the IC50 [2] of the same molecule?
A: 70 µM

Q: What about the IC50 (SMYD2) of the same molecule?
A: > 100 µM

Q: And the IC50 (G9a)?
A: > 100 µM

Q: What about the IC50 (NSD1) of the same molecule?
A: > 100 µM

Q: Which results are given for `Cc1cc(C)n(-c2cc(N3CCc4ccccc4C3)ccc2[N+](=O)[O-])n1` [EED666]?
A: IC50 (SETD2): > 100 µM; IC50 (SMYD3): > 100 µM; IC50 (Dot1L): > 100 µM; IC50 (PRMT3): > 100 µM; IC50 [1]: > 100 µM; IC50 [2]: 66 µM; IC50 (SMYD2): > 100 µM; IC50 (G9a): > 100 µM; IC50 (NSD1): > 100 µM

Q: `COc1ccccc1CN1CC(c2cn(C)c3ccccc23)C(N(C)C)C1` (stereo not shown) [EED709] was tested. Which IC50 (SETD2) did it give?
A: > 100 µM

Q: What about the IC50 (SMYD3) of the same molecule?
A: > 100 µM

Q: And the IC50 (Dot1L)?
A: > 100 µM

Q: What about the IC50 (PRMT3) of the same molecule?
A: > 100 µM

Q: What about the IC50 [1] of the same molecule?
A: > 100 µM

Q: What about the IC50 (SMYD2) of the same molecule?
A: > 100 µM

Q: What about the IC50 (G9a) of the same molecule?
A: > 100 µM

Q: What about the IC50 (NSD1) of the same molecule?
A: > 100 µM
